# Active and inactive are the calls of the source. No cut-off for these calls is given here. Bridge positions count the residues as written; N and C are the ends. Square brackets hold non-standard residues; d marks the D form. Peptide text beside a SMILES is read from it. * marks the point of attachment. Heptanoyl(6-Me) = CC(C)CCCCC(=O)*; Dab = NCC[C@H](N)C(=O)O; Dap = NC[C@H](N)C(=O)O
# Experiments:
# Klebsiella pneumoniae [1] = experiment: Antibacterial activity against carbapenem-resistant Klebsiella pneumoniae ATCC BAA-1705 infected in ICR mouse model administered intravenously with compound at 1 and 6 hrs post-infection and measured after 7 days; format: functional; conditions: ATCC BAA-1705, 168 h, route iv, time 7 day
# Klebsiella pneumoniae [2] = experiment: Antibacterial activity against carbapenem-resistant Klebsiella pneumoniae clinical isolate ets80 assessed as inhibition of bacterial growth incubated for 24 hrs by CLSI protocol based broth microdilution method; format: functional
# Pseudomonas aeruginosa [3] = experiment: Antibacterial activity against carbapenem-resistant Pseudomonas aeruginosa clinical isolate ets15 assessed as inhibition of bacterial growth incubated for 24 hrs by CLSI protocol based broth microdilution method; format: functional
# Klebsiella pneumoniae [4] = experiment: Antibacterial activity against carbapenem-resistant Klebsiella pneumoniae clinical isolate ets75 assessed as inhibition of bacterial growth incubated for 24 hrs by CLSI protocol based broth microdilution method; format: functional
# Cell membrane = experiment: Disruption of cell membrane integrity in Pseudomonas aeruginosa ATCC 27853 assessed as morphological changes at 16 microg/ml incubated for 2 hrs by scanning electron microscopic analysis; conditions: dose 16.0 µg/ml
# Pseudomonas aeruginosa [5] = experiment: Antibacterial activity against carbapenem-resistant Pseudomonas aeruginosa clinical isolate ets85 assessed as inhibition of bacterial growth incubated for 24 hrs by CLSI protocol based broth microdilution method; format: functional
# Acinetobacter baumannii [6] = experiment: Antibacterial activity against carbapenem-resistant Acinetobacter baumannii clinical isolate ets171 assessed as inhibition of bacterial growth incubated for 24 hrs by CLSI protocol based broth microdilution method; format: functional
# Lipopolysaccharide (LPS) = experiment: Binding affinity to Pseudomonas aeruginosa LPS assessed as dissociation constant by SPR analysis
# [7] = Toxicity in ICR mouse assessed as adverse effect at 15.4 mg/kg, iv administered as single dose; format: organism-based; conditions: in vivo
# Pseudomonas aeruginosa [8] = experiment: Antibacterial activity against carbapenem-resistant Pseudomonas aeruginosa clinical isolate ets5 assessed as inhibition of bacterial growth incubated for 24 hrs by CLSI protocol based broth microdilution method; format: functional
# [9] = Half-life in male Sprague-Dawley rat at 3 mg/kg, iv measured after 24 hrs by LC-MS/MS analysis; format: ADME, organism-based; conditions: in vivo
# Pseudomonas aeruginosa [10] = experiment: Antibacterial activity against Pseudomonas aeruginosa ATCC 27853 assessed as bacterial concentration at 4 to 8 times of MIC measured after 1 hrs by time-kill kinetics assay; format: functional, organism-based
# Klebsiella pneumoniae [11] = experiment: Antibacterial activity against carbapenem-resistant Klebsiella pneumoniae clinical isolate ets78 assessed as inhibition of bacterial growth incubated for 24 hrs by CLSI protocol based broth microdilution method; format: functional
# Acinetobacter baumannii [12] = experiment: Antibacterial activity against carbapenem-resistant Acinetobacter baumannii clinical isolate ets123 assessed as inhibition of bacterial growth incubated for 24 hrs by CLSI protocol based broth microdilution method; format: functional
# Acinetobacter baumannii [13] = experiment: Antibacterial activity against Acinetobacter baumannii NCTC 13304 (OXA-27) assessed as inhibition of bacterial growth incubated for 16 to 20 hrs by CLSI protocol based broth microdilution method; format: functional; conditions: time 16-20 hrs
# Klebsiella pneumoniae [14] = experiment: Antibacterial activity against carbapenem-resistant Klebsiella pneumoniae clinical isolate KPN+19-15 infected in ICR mouse model assessed as survival rate at 2 mg/kg, iv administered at 1 and 6 hrs post-infection and measured after 7 days relative to control; format: functional; conditions: 168 h, time 7 day
# Pseudomonas aeruginosa [15] = experiment: Potentiation of rifampicin induced antibacterial activity against Pseudomonas aeruginosa ATCC 27853 assessed as rifampicin MIC at 0.008 microg/ml incubated 24 hrs by cation adjusted Mueller-Hinton broth based method; format: functional; conditions: dose 0.008 µg/ml
# [16] = MRT in male Sprague-Dawley rat at 3 mg/kg, iv measured after 24 hrs by LC-MS/MS analysis; format: ADME, organism-based; conditions: in vivo
# Pseudomonas aeruginosa [17] = experiment: Antibacterial activity against carbapenem-resistant Pseudomonas aeruginosa clinical isolate ets22 assessed as inhibition of bacterial growth incubated for 24 hrs by CLSI protocol based broth microdilution method; format: functional
# Escherichia coli [18] = experiment: Antibacterial activity against Escherichia coli ATCC BAA-2523 infected in ICR mouse model administered intravenously with compound at 1 and 6 hrs post-infection and measured after 7 days; format: functional; conditions: ATCC BAA-2523, 168 h, route iv, time 7 day
# Escherichia coli [19] = experiment: Antibacterial activity against carbapenem-resistant Escherichia coli clinical isolate 231109W005 assessed as inhibition of bacterial growth incubated for 24 hrs by CLSI protocol based broth microdilution method; format: functional
# Pseudomonas aeruginosa [20] = experiment: Antibacterial activity against Pseudomonas aeruginosa ATCC 27853 assessed as decrease in bacterial concentration at 0.5 to 2 times of MIC measured after 1 hrs by time-kill kinetics assay; format: functional, organism-based
# Pseudomonas aeruginosa [21] = experiment: Antibacterial activity against Pseudomonas aeruginosa ATCC 27853 assessed as decrease in bacterial concentration at 0.5 to 2 times of MIC measured after 2 hrs by time-kill kinetics assay; format: functional, organism-based
# Acinetobacter baumannii [22] = experiment: Antibacterial activity against carbapenem-resistant Acinetobacter baumannii clinical isolate ets178 assessed as inhibition of bacterial growth incubated for 24 hrs by CLSI protocol based broth microdilution method; format: functional
# [23] = Nephrotoxicity against Sprague-Dawley rat assessed as increase in CRE level at 4 mg/kg, iv administered for 7 days by fully automated biochemistry analyzer XR200PLUS; format: toxicity, organism-based; conditions: in vivo, 168 h, time 7 day
# Klebsiella pneumoniae [24] = experiment: Antibacterial activity against carbapenem-resistant Klebsiella pneumoniae ATCC BAA-1705 assessed as inhibition of bacterial growth incubated for 16 to 20 hrs by CLSI protocol based broth microdilution method; format: functional; conditions: time 16-20 hrs
# Pseudomonas aeruginosa [25] = experiment: Antibacterial activity against Pseudomonas aeruginosa ATCC 27853 infected in ICR mouse model administered intravenously with compound at 1 and 6 hrs post-infection and measured after 7 days; format: functional; conditions: ATCC 27853, 168 h, route iv, time 7 day
# [26] = Renal cytotoxicity against HK-2 cells incubated for 72 hrs by CCK8 assay; format: toxicity, cell-based; conditions: human
# Escherichia coli [27] = experiment: Antibacterial activity against carbapenem-resistant Escherichia coli clinical isolate 231112E006B assessed as inhibition of bacterial growth incubated for 24 hrs by CLSI protocol based broth microdilution method; format: functional
# Pseudomonas aeruginosa [28] = experiment: Antibacterial activity against carbapenem-resistant Pseudomonas aeruginosa clinical isolate ets83 assessed as inhibition of bacterial growth incubated for 24 hrs by CLSI protocol based broth microdilution method; format: functional
# [29] = Clearance in male Sprague-Dawley rat at 3 mg/kg, iv measured after 24 hrs by LC-MS/MS analysis; format: ADME, organism-based; conditions: in vivo
# Pseudomonas aeruginosa [30] = experiment: Antibacterial activity against carbapenem-resistant Pseudomonas aeruginosa clinical isolate ets6 assessed as inhibition of bacterial growth incubated for 24 hrs by CLSI protocol based broth microdilution method; format: functional
# Pseudomonas aeruginosa [31] = experiment: Antibacterial activity against carbapenem-resistant Pseudomonas aeruginosa clinical isolate ets55 assessed as inhibition of bacterial growth incubated for 24 hrs by CLSI protocol based broth microdilution method; format: functional
# Pseudomonas aeruginosa [32] = experiment: Antibacterial activity against Pseudomonas aeruginosa ATCC 27853 assessed as inhibition of bacterial growth incubated for 16 to 20 hrs by CLSI protocol based broth microdilution method; format: functional; conditions: time 16-20 hrs
# Klebsiella pneumoniae [33] = experiment: Antibacterial activity against carbapenem-resistant Klebsiella pneumoniae clinical isolate ets40 assessed as inhibition of bacterial growth incubated for 24 hrs by CLSI protocol based broth microdilution method; format: functional
# Acinetobacter baumannii [34] = experiment: Antibacterial activity against carbapenem-resistant Acinetobacter baumannii NCTC13304 infected in ICR mouse model assessed as survival rate at 3 mg/kg, iv administered at 1 and 6 hrs post-infection and measured after 7 days relative to control; format: functional; conditions: NCTC13304, 168 h, time 7 day
structure (smiles),measurement,setting,value
CC(C)CCCCC(=O)N[C@@H](CCN)C(=O)N[C@H](C(=O)N[C@@H](CN)C(=O)N[C@H]1CCNC(=O)[C@H]([C@@H](C)O)NC(=O)[C@H](CCN)NC(=O)[C@H](CCN)NC(=O)[C@H]([C@@H](C)O)NC(=O)[C@@H](Cc2ccccc2)NC(=O)[C@H](CCN)NC1=O)[C@@H](C)O ({Heptanoyl(6-Me)}-[Dab]T[Dap][Dab][Dab][dF]T[Dab][Dab]T; lactam 4-C),ED50,Klebsiella pneumoniae [1],0.32 mg/kg
same,MIC,Klebsiella pneumoniae [2],0.25 µg/mL
same,MIC,Pseudomonas aeruginosa [3],0.5 µg/mL
same,MIC,Klebsiella pneumoniae [4],0.5 µg/mL
same,Activity,Cell membrane,Active
same,MIC,Pseudomonas aeruginosa [5],0.5 µg/mL
same,MIC,Acinetobacter baumannii [6],0.5 µg/mL
same,Kd,Lipopolysaccharide (LPS),11.5 µM
same,Activity,[7],Non-toxic
same,MIC,Pseudomonas aeruginosa [8],1 µg/mL
same,half-life,[9],2.22 h
same,Activity,Pseudomonas aeruginosa [10],Below limit of detection
same,MIC,Klebsiella pneumoniae [11],0.5 µg/mL
same,MIC,Acinetobacter baumannii [12],0.5 µg/mL
same,MIC,Acinetobacter baumannii [13],≤ 0.03 µg/mL
same,survival at 2 mg/kg,Klebsiella pneumoniae [14],100%
same,MIC,Pseudomonas aeruginosa [15],32 µg/mL
same,MRT,[16],1.17 h
same,MIC,Pseudomonas aeruginosa [17],2 µg/mL
same,ED50,Escherichia coli [18],1.86 mg/kg
same,MIC,Escherichia coli [19],< 0.06 µg/mL
same,Activity,Pseudomonas aeruginosa [20],Active
same,Activity,Pseudomonas aeruginosa [21],inactive
same,MIC,Acinetobacter baumannii [22],0.5 µg/mL
same,Activity,[23],Non-toxic
same,MIC,Klebsiella pneumoniae [24],≤ 0.03 µg/mL
same,ED50,Pseudomonas aeruginosa [25],6.38 mg/kg
same,IC50 at 72 h,[26],> 500 µg/mL
same,MIC,Escherichia coli [27],< 0.06 µg/mL
same,MIC,Pseudomonas aeruginosa [28],0.5 µg/mL
same,clearance,[29],4.16 mL/min/kg
same,MIC,Pseudomonas aeruginosa [30],1 µg/mL
same,MIC,Pseudomonas aeruginosa [31],1 µg/mL
same,MIC,Pseudomonas aeruginosa [32],0.125 µg/mL
same,MIC,Klebsiella pneumoniae [33],0.25 µg/mL
same,survival at 3 mg/kg,Acinetobacter baumannii [34],100%
